Assay [1] has as its system shunt pathway. Nature of the assay: Test Code 036 (C-Shunt inhibitor), lysis of fragile human erythrocytes in autologous serum, cobra venom factor activated. It counts as cell-based. Conditions: serial twofold dilution assay; higher well number indicates higher activity. An excerpt:
(§1) An active inhibitor protects C2 from C1 and C4; (ii) Test Code 035 (C3-C9 inhibitor)--This test determines the ability of the late components of human complement (C3-C9) to lyse EAC 142 in the presence of approriate dilutions of the test compound. An active inhibitor protects EAC 142 from lysis by human C3-C9; (iii) Test Code 036 (C-Shunt inhibitor)--In this test human erythrocytes rendered fragile are lysed in autologous serum via the shunt pathway activated by cobra venom factor in the presence of appropriate dilutions of the test compound. Inhibition of the shunt pathway results in failure of lysis; (iv) Forssman Vasculitis Test--Here, the well known complement dependent lesion, Forssman vasculitis, is produced in guinea pigs by intradermal injection of rabbit anti-Forssman antiserum. […] Percent inhibition is calculated by comparison with simultaneous controls. […]

Assay [2] concerns late components of human complement (C3-C9). Nature of the assay: Test Code 035 (C3-C9 inhibitor), lysis of EAC 142. It is filed as biochemical. Particulars: serial twofold dilution assay; higher well number indicates higher activity.
Source text: as §1

The subject of assay [3] is complement activity of serum. Nature of the assay: Guinea Pig Intraperitoneal Test (GPIP), serum complement activity. It is filed as in vivo. Conditions: Cavia porcellus, ip, 200 mg./kg. i.p. From the text: An active inhibitor protects C2 from C1 and C4; (ii) Test Code 035 (C3-C9 inhibitor)--This test determines the ability of the late components of human complement (C3-C9) to lyse EAC 142 in the presence of approriate dilutions of the test compound. An active inhibitor protects EAC 142 from lysis by human C3-C9; (iii) Test Code 036 (C-Shunt inhibitor)--In this test human erythrocytes rendered fragile are lysed in autologous serum via the shunt pathway activated by cobra venom factor in the presence of appropriate dilutions of the test compound. Inhibition of the shunt pathway results in failure of lysis; (iv) Forssman Vasculitis Test--Here, the well known complement dependent lesion, Forssman vasculitis, is produced in guinea pigs by intradermal injection of rabbit anti-Forssman antiserum. The lesion is measured in terms of diameter, edema and hemorrhage and the extent to which a combined index of these is inhibited by prior intraperitoneal injection of the test compound at 200 mg./kg. is then reported, unless otherwise stated; (v) Forssman Shock Test--Lethal shock is produced in guinea pigs by an i.v. injection of anti-Forssman antiserum and the haromic mean death time of treated guinea pigs is compared with that of simultaneous controls; (vi) Complement Level Reduction Test--In this test, the above dosed guinea pigs, or others, are bled for serum and the complement level is determined in undiluted serum by the capillary tube method of U.S. Pat. No. 3,876,376 and compared to undosed control guinea pigs; (vii) Cap 50 Test--Here, appropriate amounts of the test compound are added to a pool of guinea pig serum in vitro, after which the undiluted serum capillary tube assay referred to above is run. The concentration of compound inhibiting 50% is reported; (viii) Guinea Pig Intraperitoneal Test (GPIP)--Guinea Pigs weighing about 300 g. are dosed intraperitoneally (i.p.) with 200 mg./kg. of the test compound dissolved in saline and adjusted to pH 7-8. […] Percent inhibition is calculated by comparison with simultaneous controls. […]

Assay [4] concerns the target activated human C1 (Homo sapiens, UniProt P09871). Briefly: Test Code 026 (C1 inhibitor). It is filed as biochemical. Particulars: serial twofold dilution assay; higher well number indicates higher activity.
Source text: as §1

Where two headings read alike, the source gives them in different places.

Turning to `O=C([O-])c1cc(NS(=O)(=O)c2cc(S(=O)(=O)Nc3cc(C(=O)[O-])c(C(=O)[O-])c(C(=O)[O-])c3)c3c(Cl)ccc(S(=O)(=O)Nc4cc(C(=O)[O-])c(C(=O)[O-])c(C(=O)[O-])c4)c3c2)cc(C(=O)[O-])c1C(=O)[O-].[Na+].[Na+].[Na+].[Na+].[Na+].[Na+].[Na+].[Na+].[Na+]` [5,5',5"-[(8-chloro-1,3,5-naphthalenetriyl)tris(sulfonylimino)]-tri-1,2,3-benzenetricarboxylic acid, nonasodium salt], the “Shunt Inhibition 036 Wells” value in assay [1] is given as “+5 Wells”. The “C-Late 035 Wells” value in assay [2] was “+2 Wells”. Besides, the inhibition at 200 mg/kg is -75% in assay [3] (0.5 h, blood sample 30 minutes after injection, read-out: In Vivo Activity (Guinea Pig) % Inhibition Intraperitoneal, 30 minutes); -69% in assay [3] (1 h, blood sample 60 minutes after injection, read-out: In Vivo Activity (Guinea Pig) % Inhibition Intraperitoneal, 60 minutes); 75% in assay [3] (2 h, blood sample 120 minutes after injection, read-out: In Vivo Activity (Guinea Pig) % Inhibition Intraperitoneal, 120 minutes). Besides, in assay [4], the “Cl 026 Wells” value is on record as “+7 Wells”.

As usually defined, the inhibition is the drop in the measured response relative to a control, in per cent.

The record behind these values is patent US4282375A, “Halogenated-naphthalenetriyltris(sulfonylimino)-aryl multicarboxylic acids and salts thereof” (priority 1979, dated 1981).
